Where two headings read alike, the source gives them in different places.
Key:
[1] = target: T1, αvβ3 (Homo sapiens, UniProt P05106+P06756); assay: αvβ3-mediated SK-Mel-2 melanoma cell adhesion to fibronectin; type: cell-based; settings: for inhibition at 5 µM: read-out: Adhesion % inhibition @5 μM
T1 construct: αvβ3-expressing U87-MG glioblastoma and SK-Mel-2 melanoma cells; host or cells: SK-Mel-2 human melanoma cells
Protocol: (§1) Cancer cell lines were obtained from ATCC (SK-Mel-2) or ECACC (U87-MG) and cultured in RPMI-1640 culture medium containing 10% foetal bovine serum (FBS), sodium pyruvate (1 mM) and L-glutamine (2 mM). All are human in origin. The αvβ3 adhesion assay was performed as previously described.[22,43]

[2] = tested on: U87-MG glioblastoma cells; assay: U87-MG 3-D spheroid invasion assay; type: cell-based; settings: Homo sapiens, U-87 MG, mean ± SD
Protocol: Selected compounds were further investigated for effects on αvβ3-mediated cell invasion to model a key step in tumour progression and metastasis. U87-MG glioblastoma cells; a well-known αvβ3-expressing cell line model,[35,36] were used in a 3-D spheroid invasion model.[37]
as §1
Spheroids were formed from U87-MG cells (1000 cells per 30 μl hanging drop) according to the method of Nowicki and then embedded in collagen as follows.[37] Collagen I (1400 μL of 3 mg mL^−1) was added to a 1 mL Eppendorf tube on ice, supplemented with 0.2 mL of complete RPMI, and adjusted to pH 7.4 with 1 N NaOH. The collagen mixture was pipetted into each chamber of an 8-chamber cover glass and incubated at 37 °C for 45 minutes. Spheroids from hanging drops were transferred to each chamber of the cover glass, the medium allowed to evaporate, and then a 200 μL layer of collagen gel matrix was added to each chamber and incubated at 37 °C for 45 minutes. 200 μL of RPMI containing test compounds was added to each chamber and incubated at 37 °C, 5% CO2 for 7 days. The spheroids were observed frequently using inverted light microscopy at 10× objective lens, and images were captured and analysed using ImageJ.

[3] = in vitro; type: cell-based; settings: human
Excerpt: (§2) Compounds were screened for non-specific cytotoxicity using the MTT assay before use in anti-αvβ3 functional assays. Unlike normal cells, cancer cell survival is often independent of αvβ3, and checking for cytotoxicity ensures inhibition of adhesion and invasion are truly from αvβ3 inhibition rather than cell death. […] In general, aminopyridines 53 and 54 were more cytotoxic than most THN-containing mimetics.
as §1
(§3) Table S1 Cytotoxicity of compounds on the cell lines used in the functional assays (measured by MTT assay). Cells (2000 cells/well for Sk-Mel-2; 1000 cells/well for U87MG) were incubated for 96 hours at 37 °C in a total volume of 200 µL/well (180 μL medium + 20 μL test compound solution). After 96 hours, the medium was replaced by fresh medium containing 0.5 mg/ml (end conc.) MTT per well, incubated for 4 h then the plate processed and read as described in Sutherland et al. 1 […]
(§4) 1. M. Sutherland, A. Gordon, F. O. Al-Shammari, A. Throup, A. Cilia La Corte, H. Philippou, S. D.
(§5) Shnyder, L. H. Patterson and H. M. Sheldrake, Cancers, 2023, 15, 4023.
(§6) (also on this page, place not known: al.1 Supplementary Information (SI) for RSC Medicinal Chemistry. This journal is © The Royal Society of Chemistry 2024)
(§7) (1 picture or pasted object on this page, not shown here)

[4] = Metabolic stability in mouse liver homogenates; type: in vitro ADME
Protocol: The methyl esters in 1 and 54 were cleaved to the corresponding free acids with half-lives of 5.4 minutes and 3.6 minutes respectively (ESI ^†). This was expected as small esters are frequently used to mask carboxylic acids with rapid ester hydrolysis releasing the active carboxylic acid in biological systems.
Compound metabolism in liver (ex vivo) was studied using (1 : 3) tissue homogenates of mouse liver. Mouse livers, supplied by the Institute of Cancer Therapeutics (ICT), under Home Office license guidelines (see below) were homogenized in phosphate-buffered saline. Liver homogenates were spiked with compound of interest (10 μM final concentration) and incubated at 37 °C. Reaction aliquots were removed over a 120 minute period, proteins precipitated using acetonitrile (1 : 3), and compound and metabolites analyzed by liquid chromatography-mass spectrometry (LC–MS) at the appropriate SIR (single ion recording) channel.
Detection was performed on a Waters Alliance system using a photodiode array detector, and a Waters Micromass ZQ quadrupole electrospray mass spectrometer connected in series. Compound and metabolites were separated on a RPB reversed-phase high-performance liquid chromatography column (HiChrom) using a mobile phase of acetonitrile/water/0.1% formic acid, with a gradient from 20% to 70% acetonitrile over 30 minutes at 1.1 mL min^−1.
Any metabolic intermediates were detected as singularly charged ions and identified by mass spectrometry.

[5] = in vitro; type: cell-based; settings: human; remark: listed apart in the source
Excerpt: as §2, §1, §3, §4, §5, §6, §7

[6] = read-out: Adhesion % inhibition @50 μM, SK-Mel-2 adhesion to fibronectin, mean ± SD
[7] = SK-Mel-2 adhesion to fibronectin, mean ± SD
[8] = SK-MEL-2, read-out: Adhesion % inhibition @50 μM (initial trial experiment), initial trial experiment, not tested further at this concentration

T1 sequence (P06756 31-889 limits assumed): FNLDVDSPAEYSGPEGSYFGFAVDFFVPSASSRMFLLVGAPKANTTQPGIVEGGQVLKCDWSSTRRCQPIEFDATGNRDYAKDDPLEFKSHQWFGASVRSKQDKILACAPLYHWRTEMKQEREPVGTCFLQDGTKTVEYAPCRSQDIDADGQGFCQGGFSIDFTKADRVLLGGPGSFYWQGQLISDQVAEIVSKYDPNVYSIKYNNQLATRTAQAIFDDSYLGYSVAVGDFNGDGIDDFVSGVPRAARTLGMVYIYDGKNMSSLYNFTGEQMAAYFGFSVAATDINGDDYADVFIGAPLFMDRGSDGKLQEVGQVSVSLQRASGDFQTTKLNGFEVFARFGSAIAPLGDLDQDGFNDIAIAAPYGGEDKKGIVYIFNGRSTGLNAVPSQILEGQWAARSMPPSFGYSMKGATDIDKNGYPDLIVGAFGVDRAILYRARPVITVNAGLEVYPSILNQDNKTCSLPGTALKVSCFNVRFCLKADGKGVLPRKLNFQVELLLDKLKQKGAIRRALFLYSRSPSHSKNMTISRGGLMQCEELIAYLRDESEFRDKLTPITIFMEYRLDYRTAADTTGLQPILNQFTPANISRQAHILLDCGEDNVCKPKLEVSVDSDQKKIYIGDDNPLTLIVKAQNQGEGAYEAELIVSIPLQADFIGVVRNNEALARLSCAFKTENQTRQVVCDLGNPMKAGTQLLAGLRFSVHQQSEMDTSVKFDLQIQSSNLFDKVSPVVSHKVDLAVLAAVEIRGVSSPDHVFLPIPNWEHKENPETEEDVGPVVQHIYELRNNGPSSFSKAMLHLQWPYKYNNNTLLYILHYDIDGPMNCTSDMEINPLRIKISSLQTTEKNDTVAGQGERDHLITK
T1 sequence (P06756 891-1048 partner limits assumed): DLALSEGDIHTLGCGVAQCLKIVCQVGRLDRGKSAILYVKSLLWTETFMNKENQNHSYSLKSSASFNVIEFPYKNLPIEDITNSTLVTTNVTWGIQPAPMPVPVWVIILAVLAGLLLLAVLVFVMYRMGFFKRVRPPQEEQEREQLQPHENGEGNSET
T1 sequence (P05106 27-788): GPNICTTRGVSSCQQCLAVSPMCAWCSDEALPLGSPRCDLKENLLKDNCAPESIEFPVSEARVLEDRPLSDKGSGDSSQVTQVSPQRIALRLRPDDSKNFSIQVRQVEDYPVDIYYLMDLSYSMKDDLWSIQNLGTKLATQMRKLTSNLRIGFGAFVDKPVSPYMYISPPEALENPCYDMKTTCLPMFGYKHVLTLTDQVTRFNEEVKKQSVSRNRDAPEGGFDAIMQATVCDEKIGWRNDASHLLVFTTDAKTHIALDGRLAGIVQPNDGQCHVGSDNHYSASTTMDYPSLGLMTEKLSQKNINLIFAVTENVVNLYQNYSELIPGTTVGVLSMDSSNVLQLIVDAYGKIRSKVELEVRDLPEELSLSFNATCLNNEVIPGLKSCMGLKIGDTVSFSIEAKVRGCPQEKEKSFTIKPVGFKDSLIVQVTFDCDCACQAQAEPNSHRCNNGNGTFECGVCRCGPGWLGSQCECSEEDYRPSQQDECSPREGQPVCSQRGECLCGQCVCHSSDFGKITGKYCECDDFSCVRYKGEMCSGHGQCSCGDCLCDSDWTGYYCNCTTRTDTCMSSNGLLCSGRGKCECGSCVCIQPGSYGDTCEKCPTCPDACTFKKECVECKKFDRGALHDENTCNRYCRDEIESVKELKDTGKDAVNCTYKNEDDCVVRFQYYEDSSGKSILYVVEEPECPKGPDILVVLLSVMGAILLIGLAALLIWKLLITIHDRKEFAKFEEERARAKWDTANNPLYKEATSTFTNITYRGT

| Compound | inhibition at 10 µM [2] [%] | IC50 at 96 h [3] [µM] | IC50 [1, 7] [µM] | inhibition at 5 µM [1, 7] [%] | inhibition at 50 µM [1, 8] [%] | further results |
| --- | --- | --- | --- | --- | --- | --- |
| COC(=O)[C@H](CC(=O)N[C@H]1C[C@@H](CCc2ccc3cccnc3n2)C1)NS(=O)(=O)c1ccccc1 [Compound 28] | 28.5 ± 4.4 | – | – | – | – | inhibition at 50 µM [1, 6]: 42.4 ± 16.3% |
| Cc1cc(C)c(S(=O)(=O)N[C@H]2CC(=O)N([C@H]3C[C@@H](CCc4ccc5c(n4)NCCC5)C3)C2=O)c(C)c1 [Compound 35] | – | 15.2 ± 5.5 | 1.8 ± 1 | – | – | inhibition at 0.5 µM ([1]; 0.5 μM, SK-Mel-2 adhesion to fibronectin): 45.6% |
| O=C1C[C@H](NS(=O)(=O)c2ccccc2)C(=O)N1[C@H]1C[C@@H](CCc2ccc3cccnc3n2)C1 [Compound 30] | 22.6 ± 4 | – | – | 39.9 ± 23.8 | – | – |
| CC(C)(C)OC(=O)C[C@H](NS(=O)(=O)c1ccccc1)C(=O)N[C@H]1C[C@@H](CCc2ccc3cccnc3n2)C1 [Compound 37] | – | > 50 | 13.6 ± 8.3 | 50 ± 17 | > 75 | – |
| COC(=O)[C@H](CCNC(=O)[C@H]1C[C@@H](Cc2ccc3cccnc3n2)C1)NS(=O)(=O)c1ccccc1 [Compound 17] | 23.3 ± 6.2 | – | – | – | – | inhibition at 50 µM [1, 6]: 13 ± 25% |
| CC(C)(C)OC(=O)C[C@H](NS(=O)(=O)c1ccccc1)C(=O)N[C@H]1C[C@@H](CCc2ccc3c(n2)NCCC3)C1 [Compound 39] | – | 35.2 ± 6.5 | – | 71 ± 16 | > 75 | – |
| COC(=O)[C@H](CCNC(=O)[C@H]1C[C@@H](CCc2ccc3cccnc3n2)C1)NS(=O)(=O)c1ccccc1 [Compound 19] | – | > 50 | – | 54 ± 15 | > 75 | – |
| CNc1cccc(CC[C@H]2C[C@@H](C(=O)NC[C@H](NS(=O)(=O)c3ccccc3)C(=O)OC)C2)n1 [Compound 53] | 62.9 ± 1.5 | – | 1.8 ± 0.4 | 85 ± 1.4 | – | – |
| CNc1cccc(CC[C@H]2C[C@@H](C(=O)NC[C@H](NS(=O)(=O)c3c(C)cc(C)cc3C)C(=O)O)C2)n1 [Compound 55] | – | – | – | – | – | stability of metabolite in liver ([4]; mouse liver homogenate): appears to be stable |
| O=C1C[C@H](NS(=O)(=O)c2ccccc2)C(=O)N1[C@H]1C[C@@H](CCc2ccc3c(n2)NCCC3)C1 [Compound 34] | 69.9 ± 1.8 | – | 3.28 ± 0.01 | 60.2 ± 14.8 | – | inhibition at 50 µM [1, 6]: 73.9 ± 24.6% |
| COC(=O)[C@H](CCNC(=O)[C@H]1C[C@@H](CCc2ccc3c(n2)NCCC3)C1)NS(=O)(=O)c1ccccc1 [Compound 23] | – | > 50 | – | 57 ± 13 | > 75 | – |
| COC(=O)[C@H](CC(=O)N[C@H]1C[C@@H](CCc2ccc3c(n2)NCCC3)C1)NS(=O)(=O)c1ccccc1 [Compound 32] | 41.6 ± 4.7 | – | – | 45.4 ± 13.7 | – | – |
| COC(=O)[C@H](CCNC(=O)[C@H]1C[C@@H](Cc2ccc3c(n2)NCCC3)C1)NS(=O)(=O)c1ccccc1 [Compound 21] | 49.5 ± 8.8 | – | 29.4 ± 2.1 | 4 ± 9 | > 75 | – |
| COC(=O)[C@H](CCNC(=O)[C@H]1C[C@@H](Cc2ccc3cccnc3n2)C1)NS(=O)(=O)c1c(C)cc(C)cc1C [Compound 18] | 17.4 ± 3.7 | – | – | – | – | IC50 at 96 h [5]: 59.2 ± 16.9 µM |
| O=C(O)C[C@H](NS(=O)(=O)c1ccccc1)C(=O)N[C@H]1C[C@@H](CCc2ccc3c(n2)NCCC3)C1 [Compound 40] | – | > 50 | – | 67 ± 16 | > 75 | – |
| COC(=O)[C@H](CC(=O)N[C@H]1C[C@@H](CCc2ccc3c(n2)NCCC3)C1)NS(=O)(=O)c1c(C)cc(C)cc1C [Compound 33] | 33.7 ± 7.4 | – | 1.2 ± 0.9 | 89.5 ± 8.7 | – | – |
| Cc1cc(C)c(S(=O)(=O)N[C@H]2CC(=O)N([C@H]3C[C@@H](CCc4ccc5cccnc5n4)C3)C2=O)c(C)c1 [Compound 31] | – | > 100 | 49.5 ± 29.8 | 13.8 ± 9.7 | – | inhibition at 50 µM [1, 6]: 60.9 ± 23.8% |
| COC(=O)[C@H](CCNC(=O)[C@H]1C[C@@H](CCc2ccc3c(n2)NCCC3)C1)NS(=O)(=O)c1c(C)cc(C)cc1C [Compound 24] | 35 ± 9 | – | – | 74 ± 10 | > 75 | – |
| COC(=O)[C@H](CCNC(=O)[C@H]1C[C@@H](Cc2ccc3c(n2)NCCC3)C1)NS(=O)(=O)c1c(C)cc(C)cc1C [Compound 22] | 22.9 ± 5.7 | > 50 | – | 83 ± 19 | > 75 | IC50 at 96 h [5]: 46.4 ± 3.5 µM |
| CC(C)[C@@H]1NC(=O)[C@@H](Cc2ccccc2)NC(=O)[C@H](CC(=O)O)NC(=O)CNC(=O)[C@H](CCCN=C(N)N)NC1=O [cRGDfV, reference compound] | – | – | – | – | – | IC50 at 96 h [5]: 69.2 ± 25.5 µM |
| COC(=O)[C@H](CCNC(=O)[C@H]1C[C@@H](CCc2ccc3cccnc3n2)C1)NS(=O)(=O)c1c(C)cc(C)cc1C [Compound 20] | 55.7 ± 1.2 | – | 11.5 ± 5.3 | 43 ± 6 | > 75 | – |
| COC(=O)[C@H](CC(=O)N[C@H]1C[C@@H](CCc2ccc3cccnc3n2)C1)NS(=O)(=O)c1c(C)cc(C)cc1C [Compound 29] | 70.4 ± 1.4 | – | – | – | – | inhibition at 50 µM [1, 6]: 56.6 ± 15.3% |
| COC(=O)[C@H](CNC(=O)[C@H]1C[C@@H](CCc2ccc3c(n2)NCCC3)C1)NS(=O)(=O)c1c(C)cc(C)cc1C [Compound 1] | 60.2 ± 0.2 | – | 0.34 ± 0.33 | 98.4 ± 1.9 | – | half-life at 10 μM ([4]; liver homogenate (1:3), 10 μM, 37 °C, read-out: half-life of methyl ester cleavage to free acid): 5.4 min |
| O=C(O)C[C@H](NS(=O)(=O)c1ccccc1)C(=O)N[C@H]1C[C@@H](CCc2ccc3cccnc3n2)C1 [Compound 38] | – | > 50 | – | – | – | inhibition at 50 µM [1, 6]: 43 ± 31% |

Reference: paper PMC11393731, “Sidechain structure–activity relationships of cyclobutane-based small molecule αvβ3 antagonists” (RSC Medicinal Chemistry, 2024)
